Experimental findings from publication doi:10.1101/2023.02.24.529844v1, “Characterization of new highly selective pyrazolo[4,3-d]pyrimidine inhibitor of CDK7” (biorxiv, 2023) are described below.

The target in test [1] is T1, CK1δ (Homo sapiens, UniProt P48730).
T1 construct: gene CSNK1D; Eurofins Discovery kinase panel
The test can be described thus: Eurofins kinase selectivity panel. It is filed as biochemical. The conditions noted are these: read-out: residual activity at 1 μM.

In test [2] the target is T2, CDK7 (Homo sapiens, UniProt P50613).
T2 construct: recombinant CDK7; with Cyclin-H
The test can be described thus: [gamma-33P]ATP radiometric kinase assay. It is filed as biochemical.

Test [3] has as its target CDK5/p25 (Homo sapiens, UniProt Q00535). The test can be described thus: biochemical. More on the design: radiometric kinase inhibition assay with [gamma-33P]ATP, P-81 phosphocellulose spotting, digital image analysis. The method, then:
(§1) The kinase inhibition assay was performed as previously described. Briefly, all tested kinases were incubated with specific substrates in the presence of ATP, 0.05 µCi [γ^33P]ATP and the LGR6768 compound in a final volume of 10 µl. The reaction was stopped by adding 3% aq. H3PO4. Aliquots were spotted onto P-81 phosphocellulose (Whatman), washed three times with 0.5% aq. H3PO4 and air-dried. Kinase inhibition was quantified using a FLA-7000 digital image analyser (Fujifilm). The drug doses required to decrease kinase activities by 50%, represented by the IC50 values, were determined from dose[…]response curves. The selectivity profiling of LGR6768 was performed on a panel of 50 kinases, including known off-targets of other structurally related pyrazolo[4,3-d]pyrimidines or isosteres, such as roscovitine or CR8 [31]. Given the high structural similarity within the CDK family, we also evaluated LGR6768 against 14 CDKs to assess its selectivity across them. The compound was applied at a 1 µM concentration, and the experiment confirmed selective reduction of the enzymatic activity of CDK7 to 4%.

In test [4] the target is CDK4/cyclin D1 (Homo sapiens, UniProt P11802). Briefly: biochemical. Details: radiometric kinase inhibition assay with [gamma-33P]ATP, P-81 phosphocellulose spotting, digital image analysis. How it is done: as §1
Test [5] concerns the target CDK1/cyclin B (Homo sapiens, UniProt P06493). The test can be described thus: biochemical. Details: radiometric kinase inhibition assay with [gamma-33P]ATP, P-81 phosphocellulose spotting, digital image analysis. The method, then:
as §1

The target of test [6] is CDK2/cyclin A (Homo sapiens, UniProt P24941). Briefly: biochemical. Details: radiometric kinase inhibition assay with [gamma-33P]ATP, P-81 phosphocellulose spotting, digital image analysis. How it is done:
as §1

Test [7] has as its target CDK2/cyclin E (Homo sapiens, UniProt P24941). Briefly: biochemical. More on the design: radiometric kinase inhibition assay with [gamma-33P]ATP, P-81 phosphocellulose spotting, digital image analysis. The method, then:
as §1

For test [8], the target named is CDK9/cyclin T (Homo sapiens, UniProt P50750). The test can be described thus: biochemical. Details: radiometric kinase inhibition assay with [gamma-33P]ATP, P-81 phosphocellulose spotting, digital image analysis. The method, then:
as §1

Test [9] concerns the target T3, CDK16 (Homo sapiens, UniProt Q00536).
T3 construct: Eurofins Discovery kinase panel
The test can be described thus: Eurofins kinase selectivity panel. It is filed as biochemical. The conditions noted are these: read-out: residual activity at 1 μM.

A word on the IC50: it is the concentration that gives 50% inhibition.

T2 sequence (P50613 2-346): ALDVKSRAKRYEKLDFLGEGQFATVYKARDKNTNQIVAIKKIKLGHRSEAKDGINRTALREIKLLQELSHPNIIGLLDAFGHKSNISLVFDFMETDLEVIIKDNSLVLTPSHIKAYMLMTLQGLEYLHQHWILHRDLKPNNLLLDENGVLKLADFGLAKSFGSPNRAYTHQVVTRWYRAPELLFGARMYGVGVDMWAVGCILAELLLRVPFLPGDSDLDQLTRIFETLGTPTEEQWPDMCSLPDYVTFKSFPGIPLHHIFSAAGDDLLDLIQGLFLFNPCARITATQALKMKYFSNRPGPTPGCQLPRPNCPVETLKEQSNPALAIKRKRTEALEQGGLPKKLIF
T2 sequence (P51946 whole entry partner): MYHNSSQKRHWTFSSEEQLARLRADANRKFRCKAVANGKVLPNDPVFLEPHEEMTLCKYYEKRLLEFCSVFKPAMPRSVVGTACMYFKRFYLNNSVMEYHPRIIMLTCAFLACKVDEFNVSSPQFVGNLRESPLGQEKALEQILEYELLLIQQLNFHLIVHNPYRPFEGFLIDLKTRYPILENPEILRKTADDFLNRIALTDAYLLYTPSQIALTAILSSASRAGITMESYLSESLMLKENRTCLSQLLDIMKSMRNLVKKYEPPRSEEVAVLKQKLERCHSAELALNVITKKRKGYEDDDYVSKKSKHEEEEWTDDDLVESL
T2 sequence (P51948 whole entry partner): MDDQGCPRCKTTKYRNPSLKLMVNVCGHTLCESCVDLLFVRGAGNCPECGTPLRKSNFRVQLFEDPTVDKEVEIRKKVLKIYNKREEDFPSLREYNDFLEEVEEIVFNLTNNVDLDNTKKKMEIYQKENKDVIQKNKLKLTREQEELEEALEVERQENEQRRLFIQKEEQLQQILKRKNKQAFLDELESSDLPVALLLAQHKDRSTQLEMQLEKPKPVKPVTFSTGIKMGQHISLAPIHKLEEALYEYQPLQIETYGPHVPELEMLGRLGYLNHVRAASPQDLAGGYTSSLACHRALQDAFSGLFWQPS
CDK9/cyclin T, sequence (P50750 whole entry): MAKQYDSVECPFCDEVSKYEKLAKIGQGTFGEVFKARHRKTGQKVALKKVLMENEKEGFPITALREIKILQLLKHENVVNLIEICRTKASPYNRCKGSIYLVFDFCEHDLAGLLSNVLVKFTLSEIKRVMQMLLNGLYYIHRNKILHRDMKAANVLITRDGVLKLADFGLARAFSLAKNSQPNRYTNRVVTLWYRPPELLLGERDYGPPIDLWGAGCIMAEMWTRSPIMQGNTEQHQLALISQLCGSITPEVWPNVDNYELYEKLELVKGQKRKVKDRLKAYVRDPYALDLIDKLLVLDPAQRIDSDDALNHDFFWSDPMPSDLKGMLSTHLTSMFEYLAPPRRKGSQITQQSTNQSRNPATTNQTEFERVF
CDK9/cyclin T, sequence (O60563 whole entry partner): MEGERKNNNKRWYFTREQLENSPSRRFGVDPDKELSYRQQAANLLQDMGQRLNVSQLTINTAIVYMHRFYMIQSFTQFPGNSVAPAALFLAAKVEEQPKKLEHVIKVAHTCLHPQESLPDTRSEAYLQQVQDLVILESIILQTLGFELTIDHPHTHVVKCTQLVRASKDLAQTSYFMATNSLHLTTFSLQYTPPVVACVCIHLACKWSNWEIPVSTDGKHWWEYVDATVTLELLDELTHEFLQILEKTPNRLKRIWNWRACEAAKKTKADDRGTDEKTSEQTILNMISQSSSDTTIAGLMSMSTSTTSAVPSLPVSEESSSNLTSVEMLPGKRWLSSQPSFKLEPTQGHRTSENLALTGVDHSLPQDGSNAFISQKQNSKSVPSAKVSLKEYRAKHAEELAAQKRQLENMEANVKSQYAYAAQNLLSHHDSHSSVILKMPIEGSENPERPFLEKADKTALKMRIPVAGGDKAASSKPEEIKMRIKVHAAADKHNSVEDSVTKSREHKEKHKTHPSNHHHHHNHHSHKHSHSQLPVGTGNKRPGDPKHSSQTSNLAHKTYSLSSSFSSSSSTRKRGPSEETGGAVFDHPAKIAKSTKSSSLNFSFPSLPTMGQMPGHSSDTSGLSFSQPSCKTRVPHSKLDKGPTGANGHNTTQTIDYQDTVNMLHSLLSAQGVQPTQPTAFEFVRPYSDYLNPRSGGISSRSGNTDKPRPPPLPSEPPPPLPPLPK
CDK1/cyclin B, sequence (P06493 whole entry): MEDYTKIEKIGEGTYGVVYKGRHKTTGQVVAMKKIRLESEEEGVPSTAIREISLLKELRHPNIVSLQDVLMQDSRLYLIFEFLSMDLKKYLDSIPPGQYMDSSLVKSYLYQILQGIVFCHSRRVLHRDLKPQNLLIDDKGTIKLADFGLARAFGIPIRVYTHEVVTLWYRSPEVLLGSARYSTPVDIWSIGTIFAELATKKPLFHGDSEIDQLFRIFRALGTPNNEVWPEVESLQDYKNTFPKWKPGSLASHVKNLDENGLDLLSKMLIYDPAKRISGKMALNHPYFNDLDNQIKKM
CDK1/cyclin B, sequence (P14635 whole entry partner): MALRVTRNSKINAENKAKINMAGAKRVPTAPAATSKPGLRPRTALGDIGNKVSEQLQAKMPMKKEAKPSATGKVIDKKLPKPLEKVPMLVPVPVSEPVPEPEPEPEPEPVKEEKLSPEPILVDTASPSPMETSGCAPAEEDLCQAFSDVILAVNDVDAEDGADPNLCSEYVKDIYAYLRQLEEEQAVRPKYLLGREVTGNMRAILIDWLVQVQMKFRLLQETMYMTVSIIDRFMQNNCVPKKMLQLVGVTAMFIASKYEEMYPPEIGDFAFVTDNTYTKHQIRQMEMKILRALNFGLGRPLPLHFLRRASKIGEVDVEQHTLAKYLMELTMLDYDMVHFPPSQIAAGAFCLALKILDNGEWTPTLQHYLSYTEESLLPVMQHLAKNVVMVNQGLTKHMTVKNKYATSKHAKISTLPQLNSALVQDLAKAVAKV
T1 sequence (P48730 whole entry): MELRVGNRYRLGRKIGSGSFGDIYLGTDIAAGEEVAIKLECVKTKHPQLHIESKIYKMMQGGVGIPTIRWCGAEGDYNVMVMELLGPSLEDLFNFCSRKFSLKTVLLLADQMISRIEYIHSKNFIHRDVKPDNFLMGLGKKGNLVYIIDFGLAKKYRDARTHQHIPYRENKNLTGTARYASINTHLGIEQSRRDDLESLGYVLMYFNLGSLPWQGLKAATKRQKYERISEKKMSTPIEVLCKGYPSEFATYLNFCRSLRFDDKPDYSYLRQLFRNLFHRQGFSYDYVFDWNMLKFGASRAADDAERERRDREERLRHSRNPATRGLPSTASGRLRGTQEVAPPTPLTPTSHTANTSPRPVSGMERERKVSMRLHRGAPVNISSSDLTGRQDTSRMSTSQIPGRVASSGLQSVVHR
CDK4/cyclin D1, sequence (P11802 whole entry): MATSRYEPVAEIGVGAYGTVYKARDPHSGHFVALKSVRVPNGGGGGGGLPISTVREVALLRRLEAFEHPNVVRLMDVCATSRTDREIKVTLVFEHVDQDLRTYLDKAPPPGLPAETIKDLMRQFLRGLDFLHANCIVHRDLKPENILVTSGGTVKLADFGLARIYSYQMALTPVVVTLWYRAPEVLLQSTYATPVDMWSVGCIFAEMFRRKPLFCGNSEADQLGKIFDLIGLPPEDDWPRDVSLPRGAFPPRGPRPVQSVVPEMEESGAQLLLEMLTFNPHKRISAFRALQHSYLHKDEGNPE
CDK4/cyclin D1, sequence (P24385 whole entry partner): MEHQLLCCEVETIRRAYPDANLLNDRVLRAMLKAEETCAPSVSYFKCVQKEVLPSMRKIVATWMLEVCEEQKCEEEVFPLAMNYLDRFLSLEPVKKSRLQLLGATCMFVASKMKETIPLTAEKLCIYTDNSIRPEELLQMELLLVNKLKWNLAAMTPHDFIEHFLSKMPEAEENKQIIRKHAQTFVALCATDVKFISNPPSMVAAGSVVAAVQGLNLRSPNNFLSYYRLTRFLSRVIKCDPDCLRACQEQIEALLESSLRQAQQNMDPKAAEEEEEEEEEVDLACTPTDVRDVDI
CDK5/p25, sequence (Q00535 whole entry): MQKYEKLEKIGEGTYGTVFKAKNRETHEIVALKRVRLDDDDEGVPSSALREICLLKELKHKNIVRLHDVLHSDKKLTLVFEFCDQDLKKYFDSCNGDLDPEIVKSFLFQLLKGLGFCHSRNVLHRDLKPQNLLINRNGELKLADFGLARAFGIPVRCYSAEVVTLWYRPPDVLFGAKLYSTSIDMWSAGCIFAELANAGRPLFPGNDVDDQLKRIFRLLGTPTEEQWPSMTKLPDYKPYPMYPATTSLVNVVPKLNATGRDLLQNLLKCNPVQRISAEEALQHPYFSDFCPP
CDK5/p25, sequence (Q15078 whole entry partner): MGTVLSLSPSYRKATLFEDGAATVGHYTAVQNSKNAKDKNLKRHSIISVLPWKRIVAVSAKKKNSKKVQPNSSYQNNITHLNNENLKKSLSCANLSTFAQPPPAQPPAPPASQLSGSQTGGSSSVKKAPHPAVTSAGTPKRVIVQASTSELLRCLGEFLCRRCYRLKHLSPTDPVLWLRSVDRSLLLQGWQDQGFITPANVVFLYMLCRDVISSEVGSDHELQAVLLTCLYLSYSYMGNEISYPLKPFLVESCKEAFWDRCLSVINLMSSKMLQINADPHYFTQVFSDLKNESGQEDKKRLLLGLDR
T3 sequence (Q00536 whole entry): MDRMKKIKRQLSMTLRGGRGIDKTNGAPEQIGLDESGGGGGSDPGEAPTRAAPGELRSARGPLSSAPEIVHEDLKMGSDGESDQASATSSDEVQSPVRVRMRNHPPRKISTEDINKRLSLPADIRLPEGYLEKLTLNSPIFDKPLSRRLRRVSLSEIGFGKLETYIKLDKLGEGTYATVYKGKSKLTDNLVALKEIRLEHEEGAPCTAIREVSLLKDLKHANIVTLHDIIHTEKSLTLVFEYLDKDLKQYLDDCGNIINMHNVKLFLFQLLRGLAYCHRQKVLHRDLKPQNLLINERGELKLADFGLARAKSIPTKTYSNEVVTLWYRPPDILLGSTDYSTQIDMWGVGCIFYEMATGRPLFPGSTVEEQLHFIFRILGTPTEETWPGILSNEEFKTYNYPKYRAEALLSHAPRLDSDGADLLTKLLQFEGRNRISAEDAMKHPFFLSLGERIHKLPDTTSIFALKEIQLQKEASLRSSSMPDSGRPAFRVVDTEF

As to `CC(C)c1n[nH]c2c(NCc3ccccc3-c3ccccc3)nc(SC3CCNCC3)nc12` [compound 4, 5-(piperidin-4-yl)thio-3-isopropyl-7-(2-phenylbenzyl)amino-1(2)H-pyrazolo[4,3-d]pyrimidine], the remaining activity at 1 µM in test [1] and in test [9] was 19% throughout. Besides, the IC50 in test [2] was 20 nM; in test [3], 1120 nM; in [4] it was more than 20000 nM; in test [5], 5140 nM; in test [6], 500 nM; in test [7] it was 250 nM. In test [8], this molecule showed an IC50 of 6550 nM.
